Data on 11 compounds can be found in ChEMBL document CHEMBL1201862, “PubChem BioAssay data set” (2004).

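Dose response: 5 concentrations. Exposure: 48 h. Format: 96-well plates. Endpoint: linear interpolation; highest concentration if not reached. Abbreviation: GI50, concentration required for 50% inhibition of growth.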 Activity calls are given as the source filed them. Rule as the data show it: active = GI50 up to about 1.1 µM and inactive = higher. A value given as a limit tells only on which side of the number the result lay.

Test systems include BT-549; CCRF-CEM; EKVX; HCT-15; HL-60; MDA-N; MOLT-4; NCI-H522; SF-539; SK-MEL-28; SK-MEL-2; SK-OV-3; SR; T47D; TK-10; U-251; MDA-MB-435; NCI-H23; OVCAR-4; HCC 2998.
Common to all, as to assay: growth of human tumour cells (NCI), 48 h

For the compound `Cc1c(C)c(C)c(CC2(C)CSC2)c(CC2(C)CSC2)c1C`, the GI50 is > 100 µM (inactive) in the experiment on BT-549; > 100 µM (inactive) with CCRF-CEM; > 100 µM (inactive) in the experiment with EKVX; > 100 µM in the experiment on HCT-15; > 100 µM (inactive) in the experiment on HL-60; > 100 µM (inactive) in the experiment on MDA-N. Moreover, the GI50 in the experiment with MOLT-4, with NCI-H522, in the experiment on SF-539, in the experiment on SK-MEL-28, in the experiment on SK-MEL-2 and in the experiment with SK-OV-3 was > 100 µM (inactive) in each case. In addition, the GI50 in the experiment on SR, with T47D, in the experiment on TK-10 and in the experiment with U-251 was > 100 µM (inactive) in each case.
Turning to `CC1(CC(=O)OC(C#C[Si](C)(C)C)Cc2ccccc2)OCCO1` (stereo unspecified), the GI50 is > 100 µM (inactive) in the experiment with BT-549; > 100 µM (inactive) with CCRF-CEM; > 100 µM (inactive) in the experiment on EKVX; > 100 µM in the experiment with HCT-15; > 100 µM (inactive) in the experiment on HL-60; > 100 µM (inactive) in the experiment on MDA-MB-435. Besides, the GI50 in the experiment with MDA-N, in the experiment on MOLT-4, with NCI-H23, in the experiment on NCI-H522, in the experiment with OVCAR-4 and in the experiment with SF-539 was > 100 µM (inactive) throughout. The GI50 in the experiment on SK-MEL-28, in the experiment with SK-MEL-2, in the experiment with SK-OV-3, in the experiment on T47D, in the experiment on TK-10 and in the experiment on U-251 was > 100 µM (inactive) each time.
As to `CCN(C(=O)N[C@@H](Cc1ccccc1)C(=O)N[C@@H](CC(C)C)C(=O)NC)c1ccccc1`, the GI50 was > 100 µM (inactive) with BT-549; > 100 µM (inactive) in the experiment on CCRF-CEM; > 100 µM (inactive) in the experiment on EKVX; > 100 µM (inactive) with HCC 2998; > 100 µM in the experiment on HCT-15; > 100 µM (inactive) with MDA-MB-435. Also, the GI50 in the experiment with MDA-N, with MOLT-4, with NCI-H23, in the experiment with NCI-H522, with OVCAR-4 and with SF-539 was > 100 µM (inactive) throughout. In addition, the GI50 in the experiment on SK-MEL-28, with SK-MEL-2, with SK-OV-3, in the experiment on T47D, in the experiment with TK-10 and with U-251 was > 100 µM (inactive) each time.
`CC(=O)Oc1ccc2c(c1)Oc1cc(C(C)=O)ccc1C21OC(=O)c2ccccc21` (stereo unspecified): the GI50 with BT-549 is > 100 µM (inactive); with EKVX, > 100 µM (inactive); in the experiment with HCC 2998, > 100 µM (inactive); with HCT-15, > 100 µM; in the experiment with HL-60, 44.6 µM (inactive); in the experiment with MDA-MB-435, 88.3 µM (inactive). Besides, the GI50 with MDA-N, in the experiment with MOLT-4, in the experiment with NCI-H23, in the experiment with NCI-H522, with OVCAR-4 and with SK-MEL-28 was > 100 µM (inactive) each time. In addition, the GI50 was > 100 µM (inactive) in the experiment with SK-MEL-2; 94.8 µM (inactive) with SK-OV-3; > 100 µM (inactive) in the experiment on T47D; > 100 µM (inactive) with TK-10; > 100 µM (inactive) in the experiment on U-251.
For the compound `COc1cc(C23OCC(Cc4cc5c(cc42)OCO5)C3CO)cc(OC)c1OC` (stereo unspecified), the GI50 with BT-549 is 56.6 µM (inactive); in the experiment with CCRF-CEM, 2.92 µM (inactive); in the experiment with EKVX, > 100 µM (inactive); in the experiment with HCC 2998, 0.24 µM (active); in the experiment with HCT-15 it was 0.538 µM; in the experiment on HL-60 it was 2.76 µM (inactive). The GI50 is 0.119 µM (active) in the experiment on MDA-MB-435; 0.402 µM (active) in the experiment with MDA-N; 13.2 µM (inactive) with MOLT-4; 3.45 µM (inactive) with NCI-H23; 2.22 µM (inactive) in the experiment on NCI-H522; 41.1 µM (inactive) in the experiment with OVCAR-4. The GI50 in the experiment with SF-539 is 2.52 µM (inactive); in the experiment with SK-MEL-28, > 100 µM (inactive); with SK-MEL-2, 3.24 µM (inactive); in the experiment with SK-OV-3, 3.19 µM (inactive); in the experiment with SR, 0.187 µM (active); in the experiment on TK-10, > 24.4 µM (inactive). For the same compound, the GI50 with U-251 is 2.94 µM (inactive).
With `CN(/N=C/C=N/N(C)C1=NCCCN1)C1=NCCCN1`, the GI50 in the experiment on BT-549 was > 100 µM (inactive); with CCRF-CEM, > 100 µM (inactive); in the experiment with EKVX, > 100 µM (inactive); in the experiment on HCC 2998, > 100 µM (inactive); in the experiment on HCT-15 it was > 100 µM; in the experiment on MDA-MB-435, > 100 µM (inactive). The GI50 in the experiment on MDA-N, in the experiment on MOLT-4, in the experiment on NCI-H23, with NCI-H522, with OVCAR-4 and in the experiment with SF-539 was > 100 µM (inactive) in each case. In addition, the GI50 with SK-MEL-28, with SK-OV-3, with SR, with TK-10 and in the experiment with U-251 was > 100 µM (inactive) in each case.
With `CCCCSC1=N/C(=C\c2ccc(N(C)C)cc2)C(Cl)=N1`, the GI50 in the experiment with BT-549 is > 100 µM (inactive); in the experiment with EKVX it was 89.5 µM (inactive); in the experiment on HCC 2998, > 100 µM (inactive); with HCT-15 it was > 100 µM; in the experiment on MDA-MB-435, > 100 µM (inactive); in the experiment on MDA-N, > 100 µM (inactive). Further, the GI50 in the experiment with MOLT-4, in the experiment with NCI-H23, in the experiment on NCI-H522, in the experiment on OVCAR-4, with SF-539 and in the experiment on SK-MEL-28 was > 100 µM (inactive) each time. Also, the GI50 in the experiment with SK-MEL-2, in the experiment with SK-OV-3, in the experiment with T47D, in the experiment on TK-10 and in the experiment on U-251 was > 100 µM (inactive) each time.
Take `O=[N+]([O-])c1ccc(-c2csc3nc(-c4ccccc4)nn23)cc1`: the GI50 was > 100 µM (inactive) in the experiment on BT-549; > 100 µM (inactive) with CCRF-CEM; > 100 µM (inactive) in the experiment with EKVX; > 100 µM (inactive) in the experiment with HCC 2998; > 100 µM with HCT-15; > 100 µM (inactive) in the experiment with HL-60. Moreover, the GI50 in the experiment on MDA-MB-435, in the experiment on MDA-N, in the experiment with MOLT-4, with NCI-H23, in the experiment on NCI-H522 and in the experiment on OVCAR-4 was > 100 µM (inactive) in each case. Also, the GI50 in the experiment with SK-MEL-28 is > 100 µM (inactive); in the experiment with SK-MEL-2, > 100 µM (inactive); in the experiment with SK-OV-3 it was 61.9 µM (inactive); in the experiment on SR it was > 100 µM (inactive); in the experiment with TK-10, > 100 µM (inactive); with U-251, 39.8 µM (inactive).
`CNc1ccc(C(=O)CC(O)CCC(C)C2OC(=O)CC(O)CC(=O)CC(O)CC(O)CC(O)CC(O)CC3(O)CC(O)C(C(=O)N4CCOCC4)C(CC(OC4OC(C)C(O)C(N)C4O)\C=C/C=C\C=C/C=C/C=C/C=C\C=C/C2C)O3)cc1` (stereo unspecified): the GI50 with BT-549 was 0.241 µM (active); with HCC 2998, 0.374 µM (active); in the experiment with HCT-15, 0.308 µM; with HL-60 it was 0.373 µM (active); in the experiment on MDA-MB-435, 0.281 µM (active); in the experiment with MDA-N, 0.304 µM (active). Besides, the GI50 with MOLT-4 was 0.399 µM (active); with NCI-H23 it was 0.329 µM (active); with NCI-H522, 0.244 µM (active); in the experiment with OVCAR-4, 0.228 µM (active); in the experiment on SF-539, 0.351 µM (active); in the experiment with SK-MEL-28, 0.186 µM (active). In addition, the GI50 with SK-MEL-2 was 0.421 µM (active); in the experiment with SK-OV-3, 0.418 µM (active); in the experiment with SR it was 0.296 µM (active); in the experiment on TK-10, 0.247 µM (active); with U-251, 0.243 µM (active).
For the compound `CN(C)P(=O)(Oc1occc1C(O)Cc1ccccc1)N(C)C` (stereo unspecified), the GI50 in the experiment with BT-549 was > 100 µM (inactive); in the experiment with CCRF-CEM, > 100 µM (inactive); with EKVX, > 100 µM (inactive); with HCC 2998, > 100 µM (inactive); in the experiment on HCT-15, > 100 µM; in the experiment with MDA-MB-435, > 100 µM (inactive). Besides, the GI50 in the experiment with MDA-N, in the experiment on NCI-H23, in the experiment with NCI-H522, in the experiment on OVCAR-4, in the experiment with SF-539 and in the experiment on SK-MEL-28 was > 100 µM (inactive) throughout. For the same compound, the GI50 in the experiment on SK-MEL-2, with SK-OV-3, in the experiment on T47D, in the experiment on TK-10 and with U-251 was > 100 µM (inactive) throughout.
As to `COc1cc(C2c3cc4c(cc3[C@@H](Nc3ccc(N)cc3)C3COC(=O)[C@H]23)OCO4)cc(OC)c1O` (stereo partly specified), the GI50 was 2.5 µM (inactive) in the experiment with BT-549; 0.222 µM (active) in the experiment on CCRF-CEM; 3.64 µM (inactive) with EKVX; 3.27 µM (inactive) with HCC 2998; 2.21 µM in the experiment with HCT-15; 10.8 µM (inactive) in the experiment on MDA-MB-435. Moreover, the GI50 in the experiment with MDA-N is 3.93 µM (inactive); in the experiment with NCI-H23 it was 0.828 µM (active); in the experiment with NCI-H522 it was 2.22 µM (inactive); in the experiment with OVCAR-4 it was 24.5 µM (inactive); in the experiment with SF-539, 1.07 µM (active); in the experiment on SK-MEL-28, 6.76 µM (inactive). Further, the GI50 with SK-MEL-2 was 5.73 µM (inactive); in the experiment on SK-OV-3, 1.51 µM (inactive); in the experiment on SR, 0.205 µM (active); in the experiment on TK-10, 3.64 µM (inactive); in the experiment on U-251 it was 0.401 µM (active).
